From patent US10669272B2, “Substituted naphthyridinone compounds useful as T cell activators” (BRISTOL-MYERS SQUIBB COMPANY, priority 2018, dated 2020)
pEC50, pIC50: −log10 of the molar value. Like-named read-outs stand apart in the source and are kept apart here.

Columns and labels:
[1] = test system: Human venous whole blood; assay: Human whole blood IFN-γ assay; format: cell-based; conditions: human whole blood, read-out: INFg Whole Blood Normalized Agonist EC50;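 note: blood from healthy donors exposed to compound for 1 h before stimulation with anti-CD3 and anti-CD28 at 1 µg/mL each, IFN-γ quantified in supernatant by AlphaLISA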
Protocol: Human Whole Blood IFN-γ Assay
Human venous whole blood (22.5 μL per well), obtained from healthy donors, was pre-treated with compounds for one hour at 37° C. in a humidified 95% air/5% CO2 incubator. The blood was stimulated with 2.5 μL anti-human CD3 and anti-CD28 mAb at a final concentration of 1 μg/mL each for 24 hours at 37° C. IFN-γ in the supernatants was measured using AlphLISA kit (Cat # AL217).

[2] = target: T1, human DGKα (Homo sapiens, UniProt P23743); assay: DGKα LIPGLO assay (extruded liposome substrate), in vitro DGK inhibition; format: biochemical; conditions: read-out: DGKa LIPGLO IC50
T1 construct: TVMV protease cleavage site (C); Hexa-His (C); made in house; host or cells: Sf9 insect cells (baculovirus, Bac-to-Bac)

[3] = target: T2, human DGKζ (Homo sapiens, UniProt Q13574); assay: DGKζ LIPGLO assay (extruded liposome substrate), in vitro DGK inhibition; format: biochemical; conditions: read-out: DGKz LIPGLO IC50
T2 construct: TVMV protease cleavage site (C); Hexa-His (C); made in house; host or cells: Sf9 insect cells (baculovirus, Bac-to-Bac)

[4] = Homo sapiens, 24 h, normalized to 3 μM reference compound with anti-CD3 plus anti-CD28 as 100% activation
[5] = normalized to 3 μM reference compound with anti-CD3 plus anti-CD28 as 100% activation
[6] = anti-CD3 plus anti-CD28, 24 hours, 3 μM reference compound = 100% activation
[7] = Homo sapiens, 24 h, anti-CD3 plus anti-CD28, 24 hours, 3 μM reference compound = 100% activation

T1 sequence (P23743 with tags, fused parts or gaps): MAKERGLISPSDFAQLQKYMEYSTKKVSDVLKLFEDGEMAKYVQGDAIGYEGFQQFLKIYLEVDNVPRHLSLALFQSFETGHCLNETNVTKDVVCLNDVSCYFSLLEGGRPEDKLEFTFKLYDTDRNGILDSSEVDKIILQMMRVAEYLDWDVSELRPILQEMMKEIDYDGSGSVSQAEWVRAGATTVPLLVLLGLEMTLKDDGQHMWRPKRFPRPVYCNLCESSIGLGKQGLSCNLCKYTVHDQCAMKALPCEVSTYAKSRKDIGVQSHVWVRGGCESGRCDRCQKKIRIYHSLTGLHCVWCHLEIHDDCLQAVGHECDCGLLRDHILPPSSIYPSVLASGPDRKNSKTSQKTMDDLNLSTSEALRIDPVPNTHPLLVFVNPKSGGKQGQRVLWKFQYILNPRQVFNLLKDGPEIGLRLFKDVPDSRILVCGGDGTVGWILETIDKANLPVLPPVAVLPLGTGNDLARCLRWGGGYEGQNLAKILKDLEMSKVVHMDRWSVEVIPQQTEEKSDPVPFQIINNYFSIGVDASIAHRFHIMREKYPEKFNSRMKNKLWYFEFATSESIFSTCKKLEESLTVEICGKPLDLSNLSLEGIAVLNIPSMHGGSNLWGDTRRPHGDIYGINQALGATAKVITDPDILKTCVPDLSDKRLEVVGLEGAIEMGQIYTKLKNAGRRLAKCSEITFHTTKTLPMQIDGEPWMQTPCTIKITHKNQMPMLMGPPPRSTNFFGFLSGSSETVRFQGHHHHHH
T2 sequence (Q13574 with tags, fused parts or gaps isoform Q13574-4): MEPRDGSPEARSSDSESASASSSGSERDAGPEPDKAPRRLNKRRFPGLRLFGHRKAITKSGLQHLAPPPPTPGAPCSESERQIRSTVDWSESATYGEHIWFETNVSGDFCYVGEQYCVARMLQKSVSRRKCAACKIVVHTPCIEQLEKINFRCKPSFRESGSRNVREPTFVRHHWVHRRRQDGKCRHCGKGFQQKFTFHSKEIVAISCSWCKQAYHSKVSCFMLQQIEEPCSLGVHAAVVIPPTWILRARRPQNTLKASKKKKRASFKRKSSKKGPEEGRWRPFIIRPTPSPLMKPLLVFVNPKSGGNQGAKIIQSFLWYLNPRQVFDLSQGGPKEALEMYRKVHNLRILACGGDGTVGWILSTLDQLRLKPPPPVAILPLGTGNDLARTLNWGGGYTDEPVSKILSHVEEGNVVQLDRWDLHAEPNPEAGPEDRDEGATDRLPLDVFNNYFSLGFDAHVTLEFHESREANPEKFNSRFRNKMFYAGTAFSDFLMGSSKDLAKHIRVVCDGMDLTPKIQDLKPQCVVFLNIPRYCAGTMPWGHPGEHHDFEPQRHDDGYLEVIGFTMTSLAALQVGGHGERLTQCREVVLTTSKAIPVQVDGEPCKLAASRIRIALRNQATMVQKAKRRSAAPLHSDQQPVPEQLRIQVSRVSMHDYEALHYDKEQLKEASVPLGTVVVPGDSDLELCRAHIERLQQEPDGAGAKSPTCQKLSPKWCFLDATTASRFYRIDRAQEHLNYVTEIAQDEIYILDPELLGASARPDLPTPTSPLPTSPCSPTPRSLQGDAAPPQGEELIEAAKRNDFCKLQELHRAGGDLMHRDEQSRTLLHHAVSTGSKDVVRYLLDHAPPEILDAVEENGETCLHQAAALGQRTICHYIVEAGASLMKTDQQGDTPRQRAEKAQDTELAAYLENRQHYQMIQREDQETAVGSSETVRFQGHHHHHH

Row | SMILES | pEC50 [1, 4] | pIC50 ([2]; liposome (LIPGLO) assay) | pIC50 ([3]; liposome (LIPGLO) assay) | pEC50 [1, 5] | pEC50 [1, 6] | pIC50 ([2]; DGKα liposome (LIPGLO) assay) | pIC50 ([3]; DGKζ liposome (LIPGLO) assay) | pEC50 [1, 7]
1 | CC(c1ccc2c(c1)OCCO2)N1C[C@H](C)N(c2cc(=O)n(C)c3ccc(C#N)nc23)C[C@H]1C (single isomer, unassigned) [Example 1258] | 5.59 | 5.66 | 7.82 |  |  |  |  | 
2 | C[C@@H]1CN(c2cc(=O)n(C)c3ccc(C#N)nc23)[C@@H](C)CN1Cc1ccc(OC(F)F)cc1F [Example 590] | 5.72 | 6.48 | 5.29 |  |  |  |  | 
3 | CC(=O)N1CC(c2noc(C(c3ccc(F)cc3)N3C[C@H](C)N(c4cc(=O)n(C)c5ccc(C#N)nc45)C[C@H]3C)n2)C1 (single isomer, unassigned) [Example 1297] | 5.57 | 6.66 | 7.04 |  |  |  |  | 
4 | CC[C@@H]1CN(c2cc(=O)n(C)c3ccc(C#N)nc23)[C@@H](C)CN1C(c1ccc(OC(F)(F)F)cc1)C1CC1 (stereo partly drawn) [Example 1190] | 5.92 | 5.64 | 5.23 |  |  |  |  | 
5 | CC(c1cc(F)cc(OC(F)(F)F)c1)N1C[C@H](C)N(c2cc(=O)n(C)c3ccc(C#N)nc23)C[C@H]1C (single isomer, unassigned) [Example 1210] |  | 5.03 | 7.74 | 6.06 |  |  |  | 
6 | C[C@@H]1CN(c2cc(=O)n(C)c3ccc(C#N)nc23)[C@@H](C)CN1C(c1ccc(O)cc1)C(F)(F)F (stereo partly drawn) [Example 626] | 5.60 | 5.77 | 5.10 |  |  |  |  | 
7 | C[C@@H]1CN(c2c(C#N)c(=O)n(C)c3ccc(C#N)nc23)CCN1C(c1ccc(F)cc1)c1cccc(F)c1 (stereo partly drawn) [Example 880] |  |  |  |  | 4.70 | 5.19 | 5.60 | 
8 | CC(c1ccccn1)N1CCN(c2c(C#N)c(=O)n(C)c3ccc(C#N)nc23)C[C@H]1C (single isomer, unassigned) [Example 963] |  |  |  |  |  | 5.85 | 3.74 | 4.70
9 | C[C@@H]1CN(c2c(C#N)c(=O)n(C)c3ccc(C#N)nc23)CCN1C(c1ccc(F)cc1)c1cncn1C (single isomer, unassigned) [Example 1019] |  |  |  |  | 4.70 | 4.49 | 5.23 | 
10 | CC[C@@H]1CN(c2cc(=O)n(C)c3ccc(C#N)nc23)[C@@H](C)CN1Cc1c(F)cc(F)cc1F [Example 1080] | 6.62 | 6.19 | 6.16 |  |  |  |  | 
11 | C[C@@H]1CN(c2c(C#N)c(=O)n(C)c3ccc(C#N)nc23)CCN1C(c1ccc(F)cc1)c1ccc(C#N)cn1 (single isomer, unassigned) [Example 908] |  |  |  |  | 5.85 | 6.11 | 5.41 | 
12 | CC[C@@H]1CN(c2cc(=O)n(C)c3ccc(C#N)nc23)[C@@H](C)CN1C(C)c1ccc(OC)cc1 (single isomer, unassigned) [Example 1350] |  | 7.01 | 7.96 | 7.52 |  |  |  | 
13 | C[C@@H]1CN(c2cc(=O)[nH]c3ccc(C#N)nc23)[C@@H](C)CN1C(c1ccc(F)cc1)c1ccc(C#N)cc1 (stereo partly drawn) [Example 1336, 8-((2S,5R)-4-((4-cyanophenyl)(4-fluorophenyl)methyl)-2,5-dimethylpiperazin-1-yl)-6-oxo-5,6-dihydro-1,5-naphthyridine-2-carbonitrile] | 4.96 | 5.74 | 4.85 |  |  |  |  | 
14 | CC[C@@H]1CN(c2cc(=O)n(C)c3ccc(C#N)nc23)[C@@H](CC)CN1Cc1ccc(F)cc1F [Example 1062] | 6.96 | 7.24 | 7.12 |  |  |  |  | 
15 | CC[C@H]1CN(C(C)c2ccc(F)cc2F)[C@H](CC)CN1c1cc(=O)n(C)c2ccc(C#N)nc12 (single isomer, unassigned) [Example 1055] |  | 7.77 | 7.80 | 7.80 |  |  |  | 
16 | C[C@@H]1CN(c2cc(=O)n(C)c3ccc(C#N)nc23)[C@@H](C)CN1C(CO)c1ccc(F)cc1 (single isomer, unassigned) [Example 558] |  | 5.00 | 4.00 | 4.82 |  |  |  | 

Row | SMILES | pEC50 [1, 4] | pIC50 ([2]; liposome (LIPGLO) assay) | pIC50 ([3]; liposome (LIPGLO) assay) | pEC50 [1, 5] | pEC50 [1, 6] | pIC50 ([2]; DGKα liposome (LIPGLO) assay) | pIC50 ([3]; DGKζ liposome (LIPGLO) assay) | pEC50 [1, 7]
17 | CC(c1cc(OC(F)(F)F)ccc1F)N1C[C@H](C)N(c2cc(=O)n(C)c3ccc(C#N)nc23)C[C@H]1C (stereo partly drawn) [Example 1203] |  | 5.52 | 5.80 | 4.70 |  |  |  | 
18 | C[C@@H]1CN(c2cc(=O)n(C)c3ccc(C#N)nc23)[C@@H](C)CN1C(c1ccc(F)cc1)c1cccc2ccnn12 (single isomer, unassigned) [Example 695] | 5.31 | 4.92 | 6.55 |  |  |  |  | 
19 | CC[C@@H]1CN(c2cc(=O)n(C)c3ccc(C#N)nc23)[C@@H](C)CN1C(c1ccc(F)cc1)c1ccc(Cl)cc1 (stereo partly drawn) [Example 1101] |  | 6.46 | 6.62 | 6.64 |  |  |  | 
20 | C[C@@H]1CN(c2c(C#N)c(=O)n(C)c3ccc(C#N)nc23)CCN1Cc1ccc(-c2ccccc2)cc1 [Example 994] |  |  |  |  |  | 5.19 | 3.96 | 4.70
21 | C[C@@H]1CN(c2cc(=O)n(C)c3ccc(C#N)nc23)[C@@H](C)CN1Cc1cccc2c1OCCN2 [Example 634] | 5.54 | 5.37 | 5.05 |  |  |  |  | 
22 | CC(c1ccc(OC(F)F)cc1)N1C[C@H](C)N(c2c(C#N)c(=O)n(C)c3ccc(C#N)nc23)C[C@H]1C (single isomer, unassigned) [Example 1375] | 5.74 | 6.72 | 6.05 |  |  |  |  | 
23 | CC(c1cccc(OC(F)(F)F)c1)N1C[C@H](C)N(c2cc(=O)n(C)c3ccc(C#N)nc23)C[C@H]1C (single isomer, unassigned) [Example 1267] | 6.14 | 5.46 | 6.96 |  |  |  |  | 
24 | CC[C@@H]1CN(c2cc(=O)n(C)c3ccc(C#N)nc23)[C@@H](C)CN1Cc1ccc2c(c1)OC(F)(F)O2 [Example 1082] | 6.24 | 5.28 | 5.82 |  |  |  |  | 
25 | CCC(c1ccc(C2CC2)cc1)N1C[C@H](C)N(c2cc(=O)n(C)c3ccc(C#N)nc23)C[C@H]1C (single isomer, unassigned) [Example 1220] |  | 6.96 | 7.02 | 6.92 |  |  |  | 
26 | CC(c1ccc(C(F)(F)F)cc1)N1C[C@@H](C)N(c2cc(=O)n(C)c3ccc(C#N)nc23)C[C@@H]1C (single isomer, unassigned) [Example 346] |  | 5.89 | 5.82 | 5.96 |  |  |  | 
27 | CC[C@H]1CN(C(c2ccc(F)cc2)c2ccon2)[C@H](CC)CN1c1cc(=O)n(C)c2ccc(C#N)nc12 (single isomer, unassigned) [Example 1073] |  | 7.48 | 6.92 | 6.68 |  |  |  | 
28 | CC[C@@H]1CN(c2cc(=O)n(C)c3ccc(C#N)nc23)[C@@H](CC)CN1Cc1ccc2c(c1)OC(F)(F)O2 [Example 1063] | 6.37 | 5.96 | 5.74 |  |  |  |  | 
29 | CC(c1c(F)cccc1F)N1C[C@H](C)N(c2c(C#N)c(=O)n(C)c3ccc(C#N)nc23)C[C@H]1C (single isomer, unassigned) [Example 781] |  |  |  |  |  | 7.13 | 6.92 | 6.08
30 | COC[C@@H]1CN(c2cc(=O)n(C)c3ccc(C#N)nc23)[C@@H](C)CN1C(c1ccc(F)cc1)c1ccc(C(F)(F)F)cn1 (stereo partly drawn) [Example 1401] | 6.33 | 6.52 | 7.31 |  |  |  |  | 
31 | C[C@@H]1CN(c2cc(=O)n(C)c3ccc(C#N)nc23)[C@@H](C)CN1C(c1cccc(F)c1)c1ccccn1 (single isomer, unassigned) [Example 379] | 5.96 | 5.70 | 5.68 |  |  |  |  | 
